Assay [1] deals with T1, Glutathione reductase, mitochondrial (Homo sapiens, UniProt P00390).
T1 sequence (P00390 whole entry): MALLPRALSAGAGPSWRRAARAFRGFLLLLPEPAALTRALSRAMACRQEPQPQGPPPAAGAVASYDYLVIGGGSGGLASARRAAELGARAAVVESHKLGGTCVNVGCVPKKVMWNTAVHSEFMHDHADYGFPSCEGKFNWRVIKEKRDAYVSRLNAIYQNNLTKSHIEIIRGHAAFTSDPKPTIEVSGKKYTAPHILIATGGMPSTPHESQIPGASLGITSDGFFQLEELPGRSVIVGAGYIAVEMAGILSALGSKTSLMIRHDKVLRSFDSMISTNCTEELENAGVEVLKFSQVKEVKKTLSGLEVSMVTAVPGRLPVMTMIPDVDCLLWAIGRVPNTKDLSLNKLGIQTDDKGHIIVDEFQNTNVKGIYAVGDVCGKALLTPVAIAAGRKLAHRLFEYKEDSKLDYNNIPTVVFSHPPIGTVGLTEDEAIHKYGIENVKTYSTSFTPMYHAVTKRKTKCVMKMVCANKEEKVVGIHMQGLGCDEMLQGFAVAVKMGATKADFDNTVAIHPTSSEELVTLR
Description: (§1) Inhibition of Recombinant TrxR1: Small molecule inhibition of recombinant thioredoxin reductase 1 (TrxR1) and gluthathione reductase (GR) was examined in 96-well plate format. 30 nM TrxR1 was incubated in the presence of 250 μM NADPH, 0.1 mg/ml BSA, and various concentrations of compound (1% DMSO final) in 50 mM Tris (pH 7.5) and 2 mM EDTA buffer for 15 minutes. Following the incubation period, 2 mM DTNB was added to each well and the change in O.D. at 412 nm was followed. Percent activity was determined using DMSO vehicle and no TrxR1 (blank) controls. 2 nM GR was incubated in the presence of 250 μM NADPH, 0.1 mg/ml BSA, and various concentrations of compounds (1% DMSO final) in 50 mM Tris (pH 7.5) and 2 mM EDTA buffer for 15 minutes. Following the incubation period, 1 mM GSSG was added to each well and the change in O.D. at 340 nm was followed. Percent activity was determined using DMSO vehicle and no GR (blank) controls.

The target of assay [2] is T2, Thioredoxin reductase 1, cytoplasmic (Homo sapiens, UniProt Q16881).
T2 sequence (Q16881 whole entry): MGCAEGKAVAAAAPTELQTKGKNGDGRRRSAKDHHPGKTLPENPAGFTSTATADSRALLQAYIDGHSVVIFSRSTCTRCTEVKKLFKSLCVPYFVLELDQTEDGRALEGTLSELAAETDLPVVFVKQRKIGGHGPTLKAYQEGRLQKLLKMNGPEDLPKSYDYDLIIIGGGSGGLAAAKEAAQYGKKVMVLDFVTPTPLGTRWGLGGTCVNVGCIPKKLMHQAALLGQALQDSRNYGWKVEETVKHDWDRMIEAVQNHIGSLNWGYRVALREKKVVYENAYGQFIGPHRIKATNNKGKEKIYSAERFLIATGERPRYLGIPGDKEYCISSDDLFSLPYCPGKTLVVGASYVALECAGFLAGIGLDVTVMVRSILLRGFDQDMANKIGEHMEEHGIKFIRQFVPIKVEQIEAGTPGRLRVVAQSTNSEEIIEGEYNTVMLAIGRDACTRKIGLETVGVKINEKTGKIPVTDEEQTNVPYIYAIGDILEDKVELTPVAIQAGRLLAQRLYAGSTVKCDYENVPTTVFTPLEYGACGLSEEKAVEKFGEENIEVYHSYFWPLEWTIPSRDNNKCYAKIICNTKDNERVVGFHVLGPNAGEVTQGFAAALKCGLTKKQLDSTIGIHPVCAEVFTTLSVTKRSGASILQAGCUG
The description is as §1.

For orientation: IC50 means the concentration that inhibits the measured activity by half. As to `CN(C)c1ccc([N+](=O)[O-])c(S(=O)(=O)Cc2ccccc2)n1`, the figures for the 50% inhibitory concentration (IC50) in assay [1] and in assay [2] were above 100 µM and 0.276 µM, respectively.
